Measured values taken from patent publication US10597388B2, “Pyridazinone herbicides” (FMC CORPORATION, priority 2014, dated 2020).
Like-named read-outs stand apart in the source and are kept apart here.

How the values were obtained:
Format in all cases: in vivo
[1] = system: barnyardgrass (Echinochloa crus-galli); assay: Test A greenhouse herbicide test, pre- and postemergence; conditions: Echinochloa crus-galli, 240 h; for pest or weed control at 125 g/ha: 125 g ai/ha; for pest or weed control at 500 g/ha: 500 g ai/ha; for pest or weed control at 500 g/ha / pest or weed control at 1000 g/ha: 0 to 100 scale; for pest or weed control at 1000 g/ha: 1000 g ai/ha
How it was run: (§1)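 Visual injury ratings, 0 (no effect) to 100 (complete control), versus untreated plants after roughly 10 d in a greenhouse. Compounds, formulated in a surfactant-containing non-phytotoxic solvent, were sprayed on loam–sand soil after sowing (pre) or on one- to two-leaf plants 2–10 cm tall (post).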

[2] = system: corn (Zea mays); assay: as above; conditions: Zea mays, 240 h; for plant injury at 1000 g/ha / Corn plant response rating (crop injury, 0 = no effect, 100 = complete kill) at 1000 g/ha: 1000 g ai/ha
How it was run: as §1

[3] = system: foxtail, giant (giant foxtail, Setaria faberii); assay: as above; conditions: Setaria faberi, 240 h; for pest or weed control at 125 g/ha: 125 g ai/ha; for pest or weed control at 500 g/ha: 500 g ai/ha; for pest or weed control at 500 g/ha / pest or weed control at 1000 g/ha: 0 to 100 scale; for pest or weed control at 1000 g/ha: 1000 g ai/ha
How it was run: as §1

[4] = system: pigweed (Amaranthus retroflexus); assay: as above; conditions: Amaranthus retroflexus, 240 h; for pest or weed control at 125 g/ha: 125 g ai/ha; for pest or weed control at 500 g/ha: 500 g ai/ha; for pest or weed control at 500 g/ha / pest or weed control at 1000 g/ha: 0 to 100 scale; for pest or weed control at 1000 g/ha: 1000 g ai/ha
How it was run: as §1

[5] = system: wheat (Triticum aestivum); assay: as above; conditions: Triticum aestivum, 240 h; for plant injury at 125 g/ha: 125 g ai/ha; for plant injury at 500 g/ha: 500 g ai/ha; for plant injury at 500 g/ha / plant injury at 1000 g/ha: 0 to 100 scale; for plant injury at 1000 g/ha: 1000 g ai/ha
How it was run: as §1

[6] = system: chickweed (common chickweed, Stellaria media); assay: Test C greenhouse herbicide test, postemergence
Excerpt: (§2) At the same time, plants selected from these crop and weed species and also chickweed (common chickweed, Stellaria media), kochia (Kochia scoparia), and oat, wild (wild oat, Avena fatua), were planted in pots containing Redi-Earth® planting medium (Scotts Company, 14111 Scottslawn Road, Marysville, Ohio 43041) comprising spaghnum peat moss, vermiculite, wetting agent and starter nutrients and treated with postemergence applications of test chemicals formulated in the same manner. Plants ranged in height from 2 to 18 cm (1- to 4-leaf stage) for postemergence treatments. Treated plants and controls were maintained in a greenhouse for 13 to 15 d, after which time all species were compared to controls and visually evaluated. Plant response ratings, summarized in Table C, are based on a scale of 0 to 100 where 0 is no effect and 100 is complete control. A dash (-) response means no test result.

[7] = system: kochia (Kochia scoparia); assay: Test C greenhouse herbicide test, postemergence
Excerpt: as §2

[8] = system: oat, wild (wild oat, Avena fatua); assay: Test C greenhouse herbicide test, postemergence
Excerpt: as §2

[9] = post-emergence, Postemergence, 0 is no effect, 100 is complete control, read-out: Barnyardgrass plant response rating
[10] = pre-emergence, Preemergence, 0 no effect, 100 complete control, read-out: Plant response rating, Barnyardgrass
[11] = post-emergence, Postemergence, 0 is no effect, 100 is complete control, read-out: Foxtail, Giant plant response rating
[12] = pre-emergence, Preemergence, 0 no effect, 100 complete control, read-out: Plant response rating, Foxtail, Giant
[13] = post-emergence, Postemergence, 0 is no effect, 100 is complete control, read-out: Pigweed plant response rating
[14] = pre-emergence, Preemergence, 0 no effect, 100 complete control, read-out: Plant response rating, Pigweed
[15] = post-emergence, Postemergence, 0 is no effect, 100 is complete control, read-out: Wheat plant response rating
[16] = pre-emergence, Preemergence, 0 no effect, 100 complete control, read-out: Plant response rating, Wheat
[17] = Postemergence, 31 g ai/ha, 0 to 100 scale (0 no effect, 100 complete control)
[18] = Postemergence, 125 g ai/ha, scale 0 to 100, 0 is no effect, 100 is complete control
[19] = Postemergence, 250 g ai/ha, scale 0 to 100, 0 no effect, 100 complete control, 13 to 15 d
[20] = postemergence, 62 g ai/ha, scale 0 to 100, 0 no effect, 100 complete control
[21] = post-emergence, Postemergence, 0 to 100 scale, 0 is no effect, 100 is complete control, read-out: Corn plant response rating
[22] = pre-emergence, Preemergence, 0 to 100 scale, 0 no effect, 100 complete control

Row | Compound | Chickweed plant response rating [6, 17] | Plant response rating, Chickweed [6, 18] | Plant response rating, Chickweed [6, 19] | Chickweed plant response rating [6, 20] | Kochia plant response rating [7, 17] | Plant response rating, Kochia [7, 18] | Plant response rating, Kochia [7, 19] | Kochia plant response rating [7, 20] | Oat, Wild plant response rating [8, 17] | Plant response rating, Oat, Wild [8, 18] | Plant response rating, Oat, Wild [8, 19] | Oat, Wild plant response rating [8, 20] | pest or weed control at 1000 g/ha [1, 9] [%] | pest or weed control at 1000 g/ha [1, 10] [%] | plant injury at 1000 g/ha [2, 21] [%] | Corn plant response rating (crop injury, 0 = no effect, 100 = complete kill) at 1000 g/ha [2, 22] [%] | pest or weed control at 1000 g/ha [3, 11] [%] | pest or weed control at 1000 g/ha [3, 12] [%] | pest or weed control at 1000 g/ha [4, 13] [%] | pest or weed control at 1000 g/ha [4, 14] [%] | further results
1 | Cc1cc(C)c2sc(C)c(-c3c(O)c(C)nn(C)c3=O)c2c1 [Compound 2, 5-hydroxy-2,6-dimethyl-4-(2,5,7-trimethylbenzo[b]thien-3-yl)-3(2H)-pyridazinone] | 95 | 95 | 98 | 95 | 50 | 65 | 75 | 55 | 75 | 90 | 85 | 80 |  |  |  |  |  |  |  |  | pest or weed control at 125 g/ha ([1]; post-emergence, Postemergence, visual rating after approx. 10 d, 0 to 100 scale (0 no effect, 100 complete control), read-out: Plant response rating, Barnyardgrass): 30%; pest or weed control at 500 g/ha [1, 9]: 80%; pest or weed control at 125 g/ha ([1]; pre-emergence, Preemergence, 0 to 100 scale where 0 is no effect and 100 is complete control, read-out: Barnyardgrass plant response rating): 50%; pest or weed control at 500 g/ha [1, 10]: 80%; Corn plant response rating (crop injury, 0 = no effect, 100 = complete kill) at 125 g/ha ([2]; post-emergence, Postemergence, 125 g ai/ha, visual rating after approx. 10 d, 0 to 100 scale (0 no effect, 100 complete control)): 0%; plant injury at 500 g/ha ([2]; post-emergence, Postemergence, 500 g ai/ha, 0 to 100 scale, 0 is no effect, 100 is complete control, read-out: Corn plant response rating): 20%; plant injury at 125 g/ha ([2]; pre-emergence, Preemergence, 125 g ai/ha, 0 to 100 scale where 0 is no effect and 100 is complete control, read-out: Corn plant response rating): 0%; Corn plant response rating (crop injury, 0 = no effect, 100 = complete kill) at 500 g/ha ([2]; pre-emergence, Preemergence, 500 g ai/ha, 0 to 100 scale, 0 no effect, 100 complete control): 10%; pest or weed control at 125 g/ha ([3]; post-emergence, Postemergence, visual rating after approx. 10 d, 0 to 100 scale (0 no effect, 100 complete control), read-out: Plant response rating, Foxtail, Giant): 80%; pest or weed control at 500 g/ha [3, 11]: 90%; pest or weed control at 125 g/ha ([3]; pre-emergence, Preemergence, 0 to 100 scale where 0 is no effect and 100 is complete control, read-out: Foxtail, Giant plant response rating): 100%; pest or weed control at 500 g/ha [3, 12]: 100%; pest or weed control at 125 g/ha ([4]; post-emergence, Postemergence, visual rating after approx. 10 d, 0 to 100 scale (0 no effect, 100 complete control), read-out: Plant response rating, Pigweed): 100%; pest or weed control at 500 g/ha [4, 13]: 100%; pest or weed control at 125 g/ha ([4]; pre-emergence, Preemergence, 0 to 100 scale where 0 is no effect and 100 is complete control, read-out: Pigweed plant response rating): 100%; pest or weed control at 500 g/ha [4, 14]: 100%; plant injury at 125 g/ha ([5]; post-emergence, Postemergence, visual rating after approx. 10 d, 0 to 100 scale (0 no effect, 100 complete control), read-out: Plant response rating, Wheat): 20%; plant injury at 500 g/ha [5, 15]: 20%; plant injury at 125 g/ha ([5]; pre-emergence, Preemergence, 0 to 100 scale where 0 is no effect and 100 is complete control, read-out: Wheat plant response rating): 0%; plant injury at 500 g/ha [5, 16]: 0%
2 | Cc1nn(C)c(=O)c(-c2cccc3ccccc23)c1O [Compound 11, 5-hydroxy-2,6-dimethyl-4-(1-naphthalenyl)-3(2H)-pyridazinone] | 60 | 85 | 90 | 65 | 85 | 100 | 100 | 95 | 40 | 60 | 70 | 45 | 80 | 90 | 50 | 20 | 90 | 90 | 90 | 100 | plant injury at 1000 g/ha [5, 15]: 60%; plant injury at 1000 g/ha [5, 16]: 50%
3 | CCc1oc2ccc(C)cc2c1-c1c(O)c(C)nn(C)c1=O [Compound 10, 4-(2-ethyl-5-methyl-3-benzofuranyl)-5-hydroxy-2,6-dimethyl-3(2H)-pyridazinone] | 90 | 90 | 90 | 90 | 60 | 95 | 95 | 85 | 5 | 5 | 25 | 5 | 90 | 100 | 20 | 10 | 80 | 100 | 90 | 100 | plant injury at 1000 g/ha [5, 15]: 0%; plant injury at 1000 g/ha [5, 16]: 0%
